Laboratory results from patent US20050261236A1, “Agonists of A2A adenosine receptors for treatment of diabetic nephropathy” (priority 2004, published 2005).

Columns and labels:
[1] = tested on: STZ-induced diabetic animal model; assay: Urinary albumin excretion in diabetes; format: in vivo; conditions: STZ diabetic rats, 24 hour urine, FIG. 1, in words
Procedure: Rats were administered ATL146e (10 ng/kg/min) or vehicle by osmotic minipumps prior to the induction of diabetes by STZ (50 mg/kg, iv) and followed for up to 6 week. Table 1, below illustrates the effect of STZ on blood glucose, body weight, systolic blood pressure and 24 hours of urine volume as well as the effect of ATL146e. Urine collections were obtained for 24 hours for measurement of urinary albumin excretion (UAE). UAE rate was 135±35 μg/24 hours at baseline and increased to 1265±500 μg/24 hours and 2921±335 μg/24 hours (P<0.0001) at week 2 and 6, respectively in the diabetic group. […] Results are illustrated in FIG. 1.

diabetic rats = assay: Plasma creatinine in diabetes; format: in vivo; conditions: diabetic rats versus vehicle, FIG. 2, in words
Procedure: Rats were administered ATL146e (10 ng/kg/min) or vehicle by osmotic minipumps prior to the induction of diabetes by STZ (50 mg/kg, iv) and followed for up to 6 week. Table 1, below illustrates the effect of STZ on blood glucose, body weight, systolic blood pressure and 24 hours of urine volume as well as the effect of ATL146e. […] Results are illustrated in FIG. 2.

[2] = tested on: STZ (45 mg/kg) Diabetic Model; assay: Blood glucose, body weight, systolic blood pressure and urine volume in STZ diabetic model; format: in vivo, rats; conditions: for 24 h Urine Volume / Body Weight / Systolic Blood Pressure: Diabetes + ATL146e (10 ng/kg/min); for 24 h Urine Volume / Body Weight / Systolic Blood Pressure / Blood Glucose: STZ rats; for Blood Glucose: Diabetes + ATL146e (10 ng/kg/min, osmotic minipump)
Procedure: Effects of ATL146e on Blood Glucose, Body Weight, Systolic Blood Pressure and Urine Volume in STZ (45 mg/kg) Diabetic Model (n=5 Each Group) Rats were administered ATL146e (10 ng/kg/min) or vehicle by osmotic minipumps prior to the induction of diabetes by STZ […] and followed for up to 6 week. Table 1, below illustrates the effect of STZ on blood glucose, body weight, systolic blood pressure and 24 hours of urine volume as well as the effect of ATL146e. Table 1 summarizes the data for blood glucose (BG), body weight (BW), systolic blood pressure (SBP) and 24 hour urinary volume (UV). Basal BG level was 74±4 mg/dl and increased to 325±4 mg/dl 48 hours after STZ-induction of diabetes and continued to be elevated at 3 and 6 weeks of the study period. Normal rats gained weight as expected. […] There were no significant changes in SBP, 3 weeks after STZ-induction of diabetes between all groups.

fibronectin mRNA = assay: Fibronectin mRNA (polymerase chain reaction) after induction of diabetes; format: in vivo; conditions: RNA from diabetic rats, PCR, FIG. 5, in words
Procedure: RNA from diabetic rats were extracted and subjected to polymerase chain reaction to examine profibrogenic factors. […] Trichrome stain of kidneys from diabetic rats treated with vehicle for 6 weeks (Panels a, c) or ATL146e-10 ng/kg/min (Panels b, d). Magnification ×400. Each panel represents a photograph from a different test animal. Results are illustrated in FIG. 5.

TNF-alpha = assay: Urinary and plasma TNF-alpha in diabetes; format: in vivo, rats
Procedure: Rats were administered ATL146e (10 ng/kg/min) or vehicle by osmotic minipumps prior to the induction of diabetes by STZ (50 mg/kg, iv) and followed for up to 6 week. Table 1, below illustrates the effect of STZ on blood glucose, body weight, systolic blood pressure and 24 hours of urine volume as well as the effect of ATL146e. Urinary TNF-alpha was not different between groups before STZ treatment. […] Results are illustrated in FIG. 3.

[3] = tested on: Nitric Oxide End Products (Nitrite and Nitrate) (NOX); assay: Urinary nitric oxide end products (nitrite and nitrate) (NOX) in diabetes; format: in vivo; conditions: diabetic rats, 6 week after STZ induction, FIG. 4, in words
Procedure: Rats were administered ATL146e (10 ng/kg/min) or vehicle by osmotic minipumps prior to the induction of diabetes by STZ (50 mg/kg, iv) and followed for up to 6 week. Table 1, below illustrates the effect of STZ on blood glucose, body weight, systolic blood pressure and 24 hours of urine volume as well as the effect of ATL146e. As shown to the right, NOX (as an indicator of endothelial function in the kidney) was decreased in diabetes group at 6 week after STZ induction of diabetes. The decreased in NOX was improved by ATL146e. […] Results are illustrated in FIG. 4.

`CCNC(=O)C1OC(n2cnc3c(N)nc(C#CCC4CCC(C(=O)OC)CC4)nc32)C(O)C1O` (stereo not drawn) [ATL146e, 4-{3-[6-Amino-9-(5-ethylcarbamoyl-3,4-dihydroxytetrahydro-furan-2-yl)-9H-purin-2-yl]-prop-2-ynyl}cyclo-hexanecarboxylic acid methyl ester] was tested, and the “Effect on urinary albumin excretion (UAE)” value [1] was “minimizes the increase of UAE”, the “Effect on the increase in plasma creatinine” value (diabetic rats) was “significantly restored to normal” and the “24 h Urine Volume” value ([2]; Baseline) was 15 ± 2 mL. For the same compound, the “Body Weight” value ([2]; Baseline) was 250 ± 13 g, the “24 h Urine Volume” value ([2]; Week 2) was 53 ± 13 mL and the “Body Weight” value ([2]; Week 3) was 323 ± 13 g. For the same compound, the “Systolic Blood Pressure” value ([2]; Week 3) was 123 ± 4 mmHg, the “24 h Urine Volume” value ([2]; Week 4) was 57 ± 15 mL and the “24 h Urine Volume” value ([2]; Week 6) was 59 ± 23 mL. For the same compound, the “Body Weight” value ([2]; Week 6) was 358 ± 24 g, the “Systolic Blood Pressure” value ([2]; Week 6) was 114 ± 2 mmHg and the “Blood Glucose” value ([2]; Baseline) was 75 ± 5 mg/dL. The “Blood Glucose” value ([2]; Week 1) was 311 ± 37 mg/dL, the “Blood Glucose” value ([2]; Week 6) was 359 ± 23 mg/dL and the “Effect on the increase in SBP observed in diabetes with no treatment” value ([2]; STZ diabetic rats, after 6 weeks, in words) was “restored the increase in SBP”. The “24 hour urinary volume (UV)” value ([2]; diabetes+ATL146e group after STZ-induction, throughout study period, in words) was “increased significantly”, the “Increase in BW” value ([2]; diabetes+ATL146e rats versus normal rats of matched age, in words) was “modest and significant from normal rats” and the “Effect on the increase in fibronectin mRNA induced by diabetes” value (fibronectin mRNA) was “reduced to levels near control”. For the same compound, the “Plasma TNF-alpha” value (TNF-alpha; all groups, any point of the study periods (data not shown)) was “not detectable”, the “Effect on the increase in TNF-alpha (printed: Plasma TNF-alpha)” value (TNF-alpha; diabetic rats, 6 week after diabetes, FIG. 3, in words) was “significantly (P<0.05) reduced the increase in Plasma TNF-alpha” and the “Effect on decreased urinary NOX” value [3] was “restored to normal levels”.
